By half-life is commonly meant the time in which the quantity being followed falls by half. Usually Cmax stands for the highest concentration seen after dosing.

What all share (assay type): in vivo
Data set [1] deals with Ctenocephalides felis. In words: Rapidity of action of topical compositions against flea infestation in cats (Example 1). As to the method:
In this example, a comparative study of the efficacy of nitenpyram (rapidity of action) administered topically, alone or in combination with fipronil, compared with fipronil administered alone, against cat fleas, was carried out.
It is a randomized, blind, controlled efficacy study carried out in parallel on 4 groups of six cats, according to the recommendations of the guidelines of the Committee for Veterinary Medicinal Products (CVMP): “Guidelines for the testing and evaluation of the efficacy of antiparasitic substances for the treatment and prevention of tick and flea infestations in dogs and cats”, EMEA/CVMP/005/00-FINAL-Rev.1.
The cats used in this study were male or female, adult domestic cats more than 6 months old, of mixed breeds, but mainly of short-hair European breed, weighing between 2 and 5 kg. […]
6 days before the beginning of the study (D=−6), all the cats were infested with approximately 100 laboratory fleas, strain Ctenocephalides felis, of male or female gender. The fleas were then counted on the day before the treatment (D=−1) and then at different times after application of the treatment (1, 4, 12 and 24 hours after treatment).
To do this, all the fleas present on an animal are harvested by combing the cat and then counting after combing. The number of live fleas is thus determined. […]

In data set [2] the test system is Ctenocephalides felis. In words: Supplementary study of efficacy over time after weekly flea re-infestation of cats (Example 3). As to the method: In this example, a comparative study of the efficacy, over time, of nitenpyram administered topically, alone or in combination with fipronil, compared with fipronil administered alone, against cat fleas, was carried out. It is the continuation of the study of example 1 using compositions A, B and C.
At a regular interval after the first administration (D=0), all the cats were infested with approximately 100 laboratory fleas, strain Ctenocephalides felis, of male or female gender. The re-infestations were thus carried out at D=7, D=14, D=21, D=28, D=35, D=42, D=49, D=56 and D=63. The fleas were then counted various times after application of the treatment (at 2, 4 and 12 hours after re-infestation at D=7, D=14, D=21 and D=28; at 4, 8 and 12 hours after re-infestation at D=35 and D=42; at 12, 24 and 48 hours after re-infestation at D=49; at 24 and 48 hours after re-infestation at D=56 and, finally, at 48 hours after re-infestation at D=63).
To do this, all the fleas present on an animal were harvested by combing the cat, and then counted after combing. The number of live fleas is thus determined. After each count, the live fleas are put back on the cat. […]

The nature of data set [3]: Comparative pharmacokinetics of nitenpyram administered orally and topically to cats (Example 4). The note with it: for Tmax: read-out: Tmax: time at which the maximum concentration of nitenpyram in the plasma is observed; for AUC: read-out: AUCtot: area under the curve of the nitenpyram concentration over time determined between t0 and the final measurement; for half-life: read-out: Thalf: half-life time (converted); for Cmax: read-out: Cmax: maximum amount of nitenpyram in the plasma. The method, then: In this example, a comparative study of the pharmacokinetics of nitenpyram administered topically and orally to cats was carried out.
The cats used in this study were prepared under the same conditions as those described in example 1.
It was verified, beforehand, that no trace of nitenpyram was detected in the plasma of the cats.
Ten young adult cats weighing between 2 and 6 kg are divided up into two groups: • a first group of 5 cats (female) received a single topical administration on the back between the shoulder blades at the beginning of the study; the topical composition is a solution containing 10% of nitenpyram (100 mg of nitenpyram per ml) and the amount administered is 0.5 ml per cat. • a second group (4 females and one male) received a single oral administration of the commercial product Capstar® given at the beginning of the study. The Capstar® product is a tablet comprising 11.4 mg of nitenpyram.
Blood samples were taken regularly, and centrifuged at 3000 rpm for 10 minutes at 4° C., the pellet is removed and the plasma is recovered for analysis.
The plasma concentration of nitenpyram is determined by the UPLC-MS/MS (Ultra-Performance Liquid Chromatography coupled to tandem mass spectrometry) method on an Acquity BEH C18 column and a Waters Quattro Premier XE mass […].

The mark [4] stands for this setting: both sexes, in vivo, oral administration, Capstar tablet 11.4 mg nitenpyram.
[5] abbreviates: female, plasma, topical or ocular, 50 mg per cat, topical administration, 10% solution 0.5 ml per cat.

Where two headings read alike, the source gives them in different places.

`CCN(Cc1ccc(Cl)nc1)/C(=C/[N+](=O)[O-])NC` [nitenpyram, (E)-N-(6-chloro-3-pyridylmethyl)-N-ethyl-N′-methyl-2-nitrovinylidenediamine]: the “effect of topical administration on cat fleas” value was “lethal effect on the cat fleas” with Ctenocephalides felis [1]; “rapid and sustained lethal effect on cat fleas” with Ctenocephalides felis [2]. In addition, the Tmax in data set [3] (both sexes, cat, in vivo, oral administration, Capstar tablet 11.4 mg nitenpyram) came to 1.3 h; in data set [3] (setting [5]), 15 h. Also, the AUC in data set [3] (setting [4]) came to 76800 ng·h/mL; in data set [3] (female, in vivo, topical or ocular, 50 mg per cat, topical administration, 10% solution 0.5 ml per cat), 86400 ng·h/mL. For the same molecule, the half-life in data set [3] (setting [4]) is 588 min; in data set [3] (setting [5]) it was 4150 min. Further, the Cmax in data set [3] (both sexes, in vivo, po, 11.4 mg, oral administration, Capstar tablet 11.4 mg nitenpyram) is above 5800 ng/mL; in data set [3] (setting [5]) it was 1290 ng/mL. For the same molecule, in data set [3] (oral, Capstar tablet), the “tolerance of oral administration” value is “well tolerated”. Further, in data set [3] (topical vs oral), the “half-life time administered topically relative to orally” value is recorded as “more than 7 times”. The “tolerance of topical administration” value in data set [3] (topical, 10% solution 0.5 ml per cat) is listed as “well tolerated locally”.

The values are drawn from US9131689B2, “Use of a 1-N-(halo-3-pyridylmethyl)-N-methylamino-1-alkylamino-2-nitroethylene derivative for preparing a topical veterinary pharmaceutical composition for combating external parasites” (priority 2007, dated 2015).
